Test results reported in PubChem BioAssay AID330 (DTP/NCI, 2004).
Values joined by “and” are separate entries in the source; they are usually repeats but may differ in a detail not shown here. Equal values may be shown once. Inconclusive results and toxic doses are left out. Rule for the calls: active = survival T/C of 150% or more; inactive = T/C below 125% in these data.

Test system: P388 leukemia ip, CD2F1 mice, survival T/C
Test: NCI In Vivo Anticancer Drug Screen. Data for tumor model P388 Leukemia (intraperitoneal) in CD2F1 (CDF1) mice
Details: endpoint: median survival time, higher = longer survival
Procedure, shortened: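 Mice carrying the transplanted tumor received test compound or vehicle. Survival was recorded in each group, and the value is the treated-group measurement divided by that of the vehicle-treated control group.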

[1] = dose: 100.0 mg/kg/injection, schedule: Q04DX003 (ip), vehicle: saline with Tween-80
[2] = dose: 200.0 mg/kg/injection, schedule: Q04DX003 (ip), vehicle: saline with Tween-80
[3] = dose: 50.0 mg/kg/injection, schedule: Q01DX009 (ip), vehicle: saline with Tween-80
[4] = dose: 100.0 mg/kg/injection, schedule: Q01DX009 (ip), vehicle: saline with Tween-80
[5] = dose: 200.0 mg/kg/injection, schedule: Q01DX009 (ip), vehicle: saline with Tween-80
[6] = dose: 25.0 mg/kg/injection, schedule: Q01DX005 (ip), vehicle: saline with Tween-80
[7] = dose: 50.0 mg/kg/injection, schedule: Q01DX005 (ip), vehicle: saline with Tween-80
[8] = dose: 100.0 mg/kg/injection, schedule: Q01DX005 (ip), vehicle: saline with Tween-80
[9] = dose: 50.0 mg/kg/injection, schedule: Q01DX005 (ip), vehicle: Klucel (hydroxypropylcellulose) (HPC)
[10] = dose: 100.0 mg/kg/injection, schedule: Q01DX005 (ip), vehicle: Klucel (hydroxypropylcellulose) (HPC)
[11] = dose: 200.0 mg/kg/injection, schedule: Q01DX005 (ip), vehicle: Klucel (hydroxypropylcellulose) (HPC)

Measured: T/C

CC12CC(c3ccoc3)OC(=O)C1CCC13COC(=O)C1=CCCC32 (stereo unspecified)
inactive: dose: 0.25 mg/kg/injection, schedule: Q01DX009 (ip), vehicle: Klucel (hydroxypropylcellulose) (HPC) 96 % of control | dose: 0.5 mg/kg/injection, schedule: Q01DX009 (ip), vehicle: Klucel (hydroxypropylcellulose) (HPC) 88 % of control | dose: 1.0 mg/kg/injection, schedule: Q01DX009 (ip), vehicle: Klucel (hydroxypropylcellulose) (HPC) 90 % of control | dose: 2.0 mg/kg/injection, schedule: Q01DX009 (ip), vehicle: Klucel (hydroxypropylcellulose) (HPC) 114 % of control

CCCCCCCCCCC(O)CCCCCCCCCC
inactive: [1] 95 % of control | [2] 90 % of control

Nc1ccccc1-c1ccccc1N
inactive: dose: 60.0 mg/kg/injection, schedule: Q01DX005 (ip), vehicle: suspension in saline 99 % of control | dose: 120.0 mg/kg/injection, schedule: Q01DX005 (ip), vehicle: suspension in saline 103 % of control | dose: 240.0 mg/kg/injection, schedule: Q01DX005 (ip), vehicle: suspension in saline 90 % of control

CCN1CC2(COC)C(O)CC(OC)C34C5CC6(O)C(O)C5C(O)(C(O)C6OC)C(C(OC)C23)C14 (stereo unspecified)
inactive: dose: 25.0 mg/kg/injection, schedule: Q01DX005 (ip), vehicle: saline 114 % of control | dose: 50.0 mg/kg/injection, schedule: Q01DX005 (ip), vehicle: saline 102 % of control | dose: 100.0 mg/kg/injection, schedule: Q01DX005 (ip), vehicle: saline 107 % of control | dose: 200.0 mg/kg/injection, schedule: Q01DX005 (ip), vehicle: saline 104 % of control

C[n+]1ccc(C#N)c2ccccc21
inactive: dose: 3.75 mg/kg/injection, schedule: Q01DX009 (ip), vehicle: saline with Tween-80 95 % of control | dose: 7.5 mg/kg/injection, schedule: Q01DX009 (ip), vehicle: saline with Tween-80 109 % of control | dose: 15.0 mg/kg/injection, schedule: Q01DX009 (ip), vehicle: saline with Tween-80 118 % of control

Cc1c(Cl)ccc2c1NC(=O)C2(O)CC(=O)c1ccccc1 (stereo unspecified)
inactive: dose: 60.0 mg/kg/injection, schedule: Q01DX005 (ip), vehicle: Klucel (hydroxypropylcellulose) (HPC) 99 % of control | dose: 120.0 mg/kg/injection, schedule: Q01DX005 (ip), vehicle: Klucel (hydroxypropylcellulose) (HPC) 97 % of control | dose: 240.0 mg/kg/injection, schedule: Q01DX005 (ip), vehicle: Klucel (hydroxypropylcellulose) (HPC) 99 % of control

Cc1cc2nc(CN)[nH]c2cc1C
inactive: dose: 50.0 mg/kg/injection, schedule: Q04DX003 (ip), vehicle: saline 100 % of control | dose: 100.0 mg/kg/injection, schedule: Q04DX003 (ip), vehicle: saline 100 % of control | dose: 200.0 mg/kg/injection, schedule: Q04DX003 (ip), vehicle: saline 95 % of control

COc1cccc2c1C(=O)c1c(O)c3c(c(O)c1C2=O)CC(O)(c1csc(-c2ccncc2)n1)CC3O (stereo unspecified)
inactive: dose: 1.56 mg/kg/injection, schedule: Q01DX009 (ip), vehicle: other 106 % of control | dose: 3.13 mg/kg/injection, schedule: Q01DX009 (ip), vehicle: other 105 % of control | dose: 6.25 mg/kg/injection, schedule: Q01DX009 (ip), vehicle: other 104 % of control | dose: 12.5 mg/kg/injection, schedule: Q01DX009 (ip), vehicle: other 106 % of control | dose: 25.0 mg/kg/injection, schedule: Q01DX009 (ip), vehicle: other 113 % of control and 116 % of control | dose: 50.0 mg/kg/injection, schedule: Q01DX009 (ip), vehicle: other 107 % of control | dose: 100.0 mg/kg/injection, schedule: Q01DX009 (ip), vehicle: other 102 % of control

CSc1nnc(N)s1
inactive: [3] 106 % of control | [4] 93 % of control | [5] 100 % of control

N#C/C(=C/c1ccccc1)c1ccccc1
inactive: [3] 87 % of control | [4] 88 % of control | [5] 88 % of control | dose: 400.0 mg/kg/injection, schedule: Q01DX009 (ip), vehicle: saline with Tween-80 102 % of control

CCCCN(N=O)C(C)=O
inactive: dose: 100.0 mg/kg/injection, schedule: Q04DX002 (ip), vehicle: saline with Tween-80 101 % of control | dose: 200.0 mg/kg/injection, schedule: Q04DX002 (ip), vehicle: saline with Tween-80 98 % of control

COc1cccc(C(=O)CCN(C)C(=O)OCc2ccccc2)c1OCc1ccccc1
inactive: [6] 94 % of control | [7] 103 % of control | [8] 103 % of control

O=C(CCl)n1ccc(=O)n(C(=O)CCl)c1=O
inactive: dose: 100.0 mg/kg/injection, schedule: Q04DX002 (ip), vehicle: saline 113 % of control | dose: 200.0 mg/kg/injection, schedule: Q04DX002 (ip), vehicle: saline 100 % of control | dose: 400.0 mg/kg/injection, schedule: Q04DX002 (ip), vehicle: saline 103 % of control

CSc1nc(Cl)c(Br)c(N2CC2)n1
inactive: [7] 100 % of control | [8] 107 % of control

Cc1cc(C)c(C(=O)CCl)c(C)c1C(=O)CCl
inactive: dose: 100.0 mg/kg/injection, schedule: Q01DX001 (ip), vehicle: saline with Tween-80 102 % of control | dose: 200.0 mg/kg/injection, schedule: Q01DX001 (ip), vehicle: saline with Tween-80 110 % of control | dose: 400.0 mg/kg/injection, schedule: Q01DX001 (ip), vehicle: saline with Tween-80 109 % of control

CN(C)c1ccc(/C=C/C2=[N+](C)c3ccccc3C2(C)C)cc1
inactive: dose: 0.03 mg/kg/injection, schedule: Q01DX009 (ip), vehicle: saline 110 % of control | dose: 0.07 mg/kg/injection, schedule: Q01DX009 (ip), vehicle: saline 97 % of control

CCOC(=O)C1=C(C)NC(C)=C(C(=O)OCC)C1C
inactive: dose: 100.0 mg/kg/injection, schedule: Q01DX009 (ip), vehicle: saline 102 % of control | dose: 200.0 mg/kg/injection, schedule: Q01DX009 (ip), vehicle: saline 89 % of control

COc1cc2c(cc1OC)[C@H]1[C@@H](CO)c3ccc4c(c3CN1CC2)OCO4
inactive: [9] 109 % of control | [10] 92 % of control | [11] 92 % of control

Oc1ccc(C(c2cc3c(cc2O)OCO3)N2CCNCC2)cc1 (stereo unspecified)
inactive: dose: 60.0 mg/kg/injection, schedule: Q01DX005 (ip), vehicle: saline with Tween-80 114 % of control | dose: 120.0 mg/kg/injection, schedule: Q01DX005 (ip), vehicle: saline with Tween-80 115 % of control | dose: 240.0 mg/kg/injection, schedule: Q01DX005 (ip), vehicle: saline with Tween-80 113 % of control

O=c1c2ccccc2c2nc3ccccc3nc2c2ccccc12
inactive: [6] 91 % of control | [7] 97 % of control | [8] 96 % of control

O=C(Cl)CCc1cc(Cl)no1
inactive: dose: 3.13 mg/kg/injection, schedule: Q04DX003 (ip), vehicle: other 109 % of control | dose: 6.25 mg/kg/injection, schedule: Q04DX003 (ip), vehicle: other 97 % of control | dose: 12.5 mg/kg/injection, schedule: Q04DX003 (ip), vehicle: other 100 % of control | dose: 25.0 mg/kg/injection, schedule: Q04DX003 (ip), vehicle: other 103 % of control | dose: 50.0 mg/kg/injection, schedule: Q04DX003 (ip), vehicle: other 107 % of control | dose: 100.0 mg/kg/injection, schedule: Q04DX003 (ip), vehicle: other 107 % of control | dose: 200.0 mg/kg/injection, schedule: Q04DX003 (ip), vehicle: other 100 % of control

O=C(O)c1cccc2c1Cc1ccccc1-2
inactive: [9] 94 % of control | [10] 92 % of control | [11] 88 % of control

O=P(c1ccccc1)(c1ccccc1)c1ccccc1.O=P(c1ccccc1)(c1ccccc1)c1ccccc1.O=P(c1ccccc1)(c1ccccc1)c1ccccc1.O=P(c1ccccc1)(c1ccccc1)c1ccccc1.[Fe+3].[O-][Cl+3]([O-])([O-])O
inactive: [1] 97 % of control | [2] 93 % of control

C1C[N-]CC[N-]CC[N-]CC[N-]1.[Cl][Rh][Cl]
inactive: dose: 0.66 mg/kg/injection, schedule: Q01DX009 (ip), vehicle: saline 117 % of control | dose: 1.0 mg/kg/injection, schedule: Q01DX009 (ip), vehicle: saline 115 % of control | dose: 1.5 mg/kg/injection, schedule: Q01DX009 (ip), vehicle: saline 115 % of control | dose: 2.25 mg/kg/injection, schedule: Q01DX009 (ip), vehicle: saline 108 % of control | dose: 3.13 mg/kg/injection, schedule: Q01DX009 (ip), vehicle: saline 121 % of control | dose: 6.25 mg/kg/injection, schedule: Q01DX009 (ip), vehicle: saline 116 % of control | dose: 12.5 mg/kg/injection, schedule: Q01DX009 (ip), vehicle: saline 108 % of control
